The source of these data is patent US11161855B2, “Tricyclic fused thiophene derivatives as JAK inhibitors” (Incyte Corporation, priority 2012, dated 2021).

In the first assay the target is human JAK2 (a.a. 828-1132) (Homo sapiens (Human), UniProt O60674). As to the kind of experiment: In vitro JAK kinase assay (HTRF), JAK2. Type of assay: biochemical. More on the design: key to JAK2 IC50 (nM): + indicates an IC50 of ≤100 nM; ++ indicates an IC50 of ≤1000 nM; +++ indicates an IC50 of ≤2000 nM; ++++ indicates an IC50 of >2000 nM; +++++ indicates that the IC50 was greater than the highest concentration tested. The settings on record: 1 mM ATP. The method, then: (§1) Compounds herein were tested for inhibitory activity of JAK targets according to the following in vitro assay described in Park et al., Analytical Biochemistry 1999, 269, 94-104. The catalytic domains of human JAK1 (a.a. 837-1142), JAK2 (a.a. 828-1132) and JAK3 (a.a. 781-1124) were expressed using baculovirus in insect cells and purified. The catalytic activity of JAK1, JAK2 or JAK3 was assayed by measuring the phosphorylation of a biotinylated peptide. The phosphorylated peptide was detected by homogenous time resolved fluorescence (HTRF). IC50s of compounds were measured for each kinase in the 40 μL reactions that contain the enzyme, ATP and 500 nM peptide in 50 mM Tris (pH 7.8) buffer with 100 mM NaCl, 5 mM DTT, and 0.1 mg/mL (0.01%) BSA. For the 1 mM IC50 measurements, ATP concentration in the reactions was 1 mM. Reactions were carried out at room temperature for 1 hour and then stopped with 20 μL 45 mM EDTA, 300 nM SA-APC, 6 nM Eu-Py20 in assay buffer (Perkin Elmer, Boston, Mass.). Binding to the Europium labeled antibody took place for 40 minutes and HTRF signal was measured on a PHERA star plate reader (BMG, Cary, N.C.). The Example compounds were each tested in the Example A assay (see Table 1 for data for the compounds of the examples as tested by the assay of Example A at 1 mM ATP).
Sequence of human JAK2 (a.a. 828-1132) (O60674 828-1132): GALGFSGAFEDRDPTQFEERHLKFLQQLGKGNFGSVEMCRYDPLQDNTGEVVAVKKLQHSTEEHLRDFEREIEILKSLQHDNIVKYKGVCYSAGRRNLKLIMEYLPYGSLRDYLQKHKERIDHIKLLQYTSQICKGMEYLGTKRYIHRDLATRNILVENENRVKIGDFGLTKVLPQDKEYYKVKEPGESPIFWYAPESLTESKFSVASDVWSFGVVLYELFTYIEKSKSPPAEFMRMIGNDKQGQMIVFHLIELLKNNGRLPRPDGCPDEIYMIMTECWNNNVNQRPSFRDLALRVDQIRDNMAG
Background: Time-resolved FRET reads energy transfer from a long-lived donor to a nearby acceptor.
Consider `CCc1nc2cnc3ccsc3c2n1[C@@H]1CC[C@@H](CC#N)[C@H](O)C1` (single isomer, unassigned) [40 (second peak)], for which the “JAK2 IC50 (nM)” value was “+++++”. On the same count and under the same terms, the value for `Cc1nc2cnc3ccsc3c2n1[C@@H]1CC[C@@H](CC#N)[C@H](O)C1` (single isomer, unassigned) [41 (second peak)] was “+++++”; that for `C[C@@H](O)c1nc2cnc3ccsc3c2n1[C@H]1CCCN(C(=O)CCC(F)(F)F)C1` [Example 52, (1R)-1-{1-[(3S)-1-(4,4,4-Trifluorobutanoyl)piperidin-3-yl]-1H-imidazo[4,5-d]thieno[3,2-b]pyridin-2-yl}ethanol] was “+++++”.

A further assay addresses human JAK1 (a.a. 837-1142) (Homo sapiens, UniProt P23458). As to the kind of experiment: In vitro JAK kinase assay (HTRF), JAK1. Type of assay: biochemical. To be noted: 1 mM ATP. As to the method: as §1
The IC50 is the concentration that inhibits the measured activity by half. Turning to `CCc1nc2cnc3ccsc3c2n1[C@@H]1CC[C@@H](CC#N)[C@H](O)C1` (single isomer, unassigned) [40 (second peak)], the IC50 is over 2000 nM. `Cc1nc2cnc3ccsc3c2n1[C@@H]1CC[C@@H](CC#N)[C@H](O)C1` (single isomer, unassigned) [41 (second peak)] yielded an IC50 of over 2000 nM.

The next assay relates to human JAK1 (a.a. 837-1142). The assay can be described thus: In vitro JAK kinase assay (HTRF), JAK1. Type of assay: biochemical. The settings on record: ratio of IC50s, 1 mM ATP. As to the method: as §1
As for `C[C@@H](O)c1nc2cnc3ccsc3c2n1[C@H]1CCCN(C(=O)CCC(F)(F)F)C1` [Example 52, (1R)-1-{1-[(3S)-1-(4,4,4-Trifluorobutanoyl)piperidin-3-yl]-1H-imidazo[4,5-d]thieno[3,2-b]pyridin-2-yl}ethanol], the JAK2/JAK1 is on record as over 10.

In the case of `CC(=O)NC(C)c1nc2cnc3ccsc3c2n1[C@H]1CC[C@H](CC#N)OC1` (stereo partly drawn) [Example 69, N-(1-{1-[(3S,6R)-6-(Cyanomethyl)tetrahydro-2H-pyran-3-yl]-1H-imidazo[4,5-d]thieno[3,2-b]pyridin-2-yl}ethyl) acetamide], the JAK2/JAK1 was over 10.

Consider `CNC(C)c1nc2cnc3ccsc3c2n1[C@H]1CC[C@H](CC#N)OC1` (stereo partly drawn) [Example 70, ((2R,5S)-5-{2-[1-(Methylamino)ethyl]-1H-imidazo[4,5-d]thieno[3,2-b]pyridin-1-yl}tetrahydro-2H-pyran-2-yl)acetonitrile], for which the JAK2/JAK1 is given as over 10. Consider `CC(F)c1nc2cnc3ccsc3c2n1[C@H]1CC[C@H](CC#N)OC1` (stereo partly drawn) [Example 71, {(2R,5S)-5-[2-(1-Fluoroethyl)-1H-imidazo[4,5-d]thieno[3,2-b]pyridin-1-yl]tetrahydro-2H-pyran-2-yl}acetonitrile], for which the JAK2/JAK1 is over 10. For the compound `N#CCc1nc2cnc3ccsc3c2n1[C@H]1CC[C@H](CC#N)OC1` [Example 73, {(2R,5S)-5-[2-(Cyanomethyl)-1H-imidazo[4,5-d]thieno[3,2-b]pyridin-1-yl]tetrahydro-2H-pyran-2-yl}acetonitrile], the JAK2/JAK1 is listed as over 10. Regarding `N#CCc1nc2cnc3ccsc3c2n1[C@H]1CC[C@@H](CC#N)OC1` [Example 74, {(2S,5S)-5-[2-(Cyanomethyl)-1H-imidazo[4,5-d]thieno[3,2-b]pyridin-1-yl]tetrahydro-2H-pyran-2-yl}acetonitrile], the JAK2/JAK1 was over 10.

`C[C@@H](O)c1nc2cnc3ccsc3c2n1[C@H]1CC[C@H](CNS(C)(=O)=O)OC1` [Example 75, N-[((2R,5S)-5-{2-[(1R)-1-Hydroxyethyl]-1H-imidazo[4,5-d]thieno[3,2-b]pyridin-1-yl}tetrahydro-2H-pyran-2-yl)methyl]methanesulfonamide]: the JAK2/JAK1 is listed as over 10. As for `CC(C)OC(=O)NC[C@H]1CC[C@H](n2c([C@@H](C)O)nc3cnc4ccsc4c32)CO1` [Example 76, Isopropyl [((2R,5S)-5-{2-[(1R)-1-hydroxyethyl]-1H-imidazo[4,5-d]thieno[3,2-b]pyridin-1-yl}tetrahydro-2H-pyran-2-yl)methyl]carbamate], the JAK2/JAK1 is on record as over 10. On the same count and under the same terms, to `COC(=O)NC[C@H]1CC[C@H](n2c([C@@H](C)O)nc3cnc4ccsc4c32)CC1` [Example 78, Methyl [(trans-4-{2-[(1R)-1-hydroxyethyl]-1H-imidazo[4,5-d]thieno[3,2-b]pyridin-1-yl}cyclohexyl)methyl]carbamate] belongs over 10; to `CC(=O)NC[C@H]1CC[C@H](n2c([C@@H](C)O)nc3cnc4ccsc4c32)CC1` [Example 79, N-[(trans-4-{2-[(1R)-1-Hydroxyethyl]-1H-imidazo[4,5-d]thieno[3,2-b]pyridin-1-yl}cyclohexyl)methyl]acetamide], over 10; to `C[C@@H](O)c1nc2cnc3ccsc3c2n1[C@H]1CC[C@H](CNS(C)(=O)=O)CC1` [Example 80, N-[(trans-4-{2-[(1R)-1-Hydroxyethyl]-1H-imidazo[4,5-d]thieno[3,2-b]pyridin-1-yl}cyclohexyl)methyl]methanesulfonamide], over 10. Consider `C[C@@H](O)c1nc2cnc3ccsc3c2n1[C@H]1CC[C@H](CNC(=O)N(C)C)CC1` [Example 81, N′-[(trans-4-{2-[(1R)-1-Hydroxyethyl]-1H-imidazo[4,5-d]thieno[3,2-b]pyridin-1-yl}cyclohexyl)methyl]-N,N-dimethylurea], for which the JAK2/JAK1 was over 10. On the same count and under the same terms, the value for `CCOC(=O)NC[C@H]1CC[C@H](n2c([C@@H](C)O)nc3cnc4ccsc4c32)CC1` [Example 82, Ethyl [(trans-4-{2-[(1R)-1-hydroxyethyl]-1H-imidazo[4,5-d]thieno[3,2-b]pyridin-1-yl}cyclohexyl)methyl]carbamate] was over 10; that for `CCCOC(=O)NC[C@H]1CC[C@H](n2c([C@@H](C)O)nc3cnc4ccsc4c32)CC1` [Example 83, Propyl [(trans-4-{2-[(1R)-1-hydroxyethyl]-1H-imidazo[4,5-d]thieno[3,2-b]pyridin-1-yl}cyclohexyl)methyl]carbamate] was over 10; that for `CC(C)OC(=O)NC[C@H]1CC[C@H](n2c([C@@H](C)O)nc3cnc4ccsc4c32)CC1` [Example 84, Isopropyl [(trans-4-{2-[(1R)-1-hydroxyethyl]-1H-imidazo[4,5-d]thieno[3,2-b]pyridin-1-yl}cyclohexyl)methyl]carbamate] was over 10.

Turning to `C[C@@H](O)c1nc2cnc3ccsc3c2n1[C@H]1CC[C@H](CNC(=O)OC2CCOC2)CC1` (stereo partly drawn) [Example 85, Tetrahydrofuran-3-yl [(trans-4-{2-[(1R)-1-hydroxyethyl]-1H-imidazo[4,5-d]thieno[3,2-b]pyridin-1-yl}cyclohexyl)methyl]carbamate], the JAK2/JAK1 is over 10. `COC(=O)NC[C@H]1CC[C@H](n2c(CC#N)nc3cnc4ccsc4c32)CC1` [Example 86, Methyl ({trans-4-[2-(cyanomethyl)-1H-imidazo[4,5-d]thieno[3,2-b]pyridin-1-yl]cyclohexyl}methyl)carbamate]: the JAK2/JAK1 is on record as over 10. The same measure, in the same setting: to `CCOC(=O)NC[C@H]1CC[C@H](n2c(CC#N)nc3cnc4ccsc4c32)CC1` [Example 87, Ethyl ({trans-4-[2-(cyanomethyl)-1H-imidazo[4,5-d]thieno[3,2-b]pyridin-1-yl]cyclohexyl}methyl)carbamate] belongs over 10; to `CC(C)OC(=O)NC[C@H]1CC[C@H](n2c(CC#N)nc3cnc4ccsc4c32)CC1` [Example 88, Isopropyl ({trans-4-[2-(cyanomethyl)-1H-imidazo[4,5-d]thieno[3,2-b]pyridin-1-yl]cyclohexyl}methyl)carbamate], over 10; to `CCC(=O)NC[C@H]1CC[C@H](n2c(CC#N)nc3cnc4ccsc4c32)CC1` [Example 89, N-({trans-4-[2-(Cyanomethyl)-1H-imidazo[4,5-d]thieno[3,2-b]pyridin-1-yl]cyclohexyl}methyl)propanamide], over 10. For `N#CCc1nc2cnc3ccsc3c2n1[C@H]1CC[C@H](CC#N)CC1` [Example 90, {1-[trans-4-(Cyanomethyl)cyclohexyl]-1H-imidazo[4,5-d]thieno[3,2-b]pyridin-2-yl}acetonitrile], the JAK2/JAK1 was over 10. Regarding `N#CC[C@H]1CC[C@H](n2c(CO)nc3cnc4ccsc4c32)CO1` [Example 91, {(2R,5S)-5-[2-(Hydroxymethyl)-1H-imidazo[4,5-d]thieno[3,2-b]pyridin-1-yl]tetrahydro-2H-pyran-2-yl}acetonitrile], the JAK2/JAK1 was over 10.
